A word on the IC90: it is the concentration needed for an effect of 90%.

Where a name gives a salt, the structure may show the parent alone.

The text below walks through data of patent US20230203043A1, “NOVEL IMIDAZOPYRAZINE DERIVATIVES” (Hoffmann-La Roche Inc., priority 2020, published 2023).

The first assay deals with Acinetobacter baumannii ATCC17961. As to the kind of experiment: Antimicrobial susceptibility testing: 90% growth inhibitory concentration (IC90) determination in Iso-Sensitest broth, OD600 growth. It counts as cell-based. To be noted: Acinetobacter baumannii, ATCC17961, 16 h, read-out: A. baumannii ATCC 17961 IC90 (uM), strain ATCC 17961, OD600 growth over 16 h. The method in brief:
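Growth monitored at 600 nm every 20 min for 16 h at 35±2 °C, inoculum ~5×10^(5) CFU/ml in Iso-Sensitest medium. Compounds in 10-point twofold series, e.g. 50 to 0.097 μM final; 90% inhibitory concentration taken from log-phase growth.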
`CCc1cc(Nc2nccn3c(-c4c[nH]nc4C(F)(F)F)cnc23)ccc1C(=O)NCCNC(=O)[C@H]1CC[C@H](N)C1` [Example 588, N-(2-((1S,3S)-3-aminocyclopentane-1-carboxamido)ethyl)-2-ethyl-4-((3-(3-(trifluoromethyl)-1H-pyrazol-4-yl)imidazo[1,2-a]pyrazin-8-yl)amino)benzamide formate]: the IC90 is 0.46 µM.

On to `Cc1cc(Nc2nccn3c(-c4c[nH]nc4C(F)(F)F)cnc23)ccc1C(=O)N1CCN(C(=O)NC2CNC2)CC1` [Example 408, N-(azetidin-3-yl)-4-[2-methyl-4-[[3-[3-(trifluoromethyl)-1H-pyrazol-4-yl]imidazo[1,2-a]pyrazin-8-yl]amino]benzoyl]piperazine-1-carboxamide formate], for which the IC90 is 0.481 µM.

On to `Cc1cc(Nc2nccn3c(-c4cn(CC#N)nc4C(F)(F)F)cnc23)ccc1C(=O)N1CCN(C(=O)[C@H]2CCNC[C@@H]2O)CC1` [Example 382, formic acid; 2-[4-[8-[4-[4-[(3R,4S)-3-hydroxypiperidine-4-carbonyl]piperazine-1-carbonyl]-3-methylanilino]imidazo[1,2-a]pyrazin-3-yl]-3-(trifluoromethyl)pyrazol-1-yl]acetonitrile], for which the IC90 was found to be 0.749 µM.

Turning to `Cc1cc(Nc2nccn3c(-c4c[nH]nc4C(F)(F)F)cnc23)ccc1C(=O)N1CCN(C(=O)[C@@H]2CCNC[C@H]2O)CC1` [Example 464, formic acid; [4-[(3S,4R)-3-hydroxypiperidine-4-carbonyl]piperazin-1-yl]-[2-methyl-4-[[3-[3-(trifluoromethyl)-1H-pyrazol-4-yl]imidazo[1,2-a]pyrazin-8-yl]amino]phenyl]methanone], the IC90 stood at 1.26 µM.

As for `CCc1cc(Nc2nccn3c(-c4cn(CC(F)F)nc4C(F)(F)F)cnc23)ccc1C(=O)NCCNC(=O)[C@H](C)N` [Example 616, (S)-N-(2-(2-aminopropanamido)ethyl)-4-((3-(1-(2,2-difluoroethyl)-3-(trifluoromethyl)-1H-pyrazol-4-yl)imidazo[1,2-a]pyrazin-8-yl)amino)-2-ethylbenzamide formate], the concentration for an effect of 90% (IC90) is 0.153 µM.

In the case of `CCc1cc(Nc2nccn3c(-c4cn(CC#N)nc4C(F)(F)F)cnc23)ccc1C(=O)N[C@H](C)C(=O)N1CCC(N)CC1` [Example 697, N-[(1R)-2-(4-amino-1-piperidyl)-1-methyl-2-oxo-ethyl]-4-[[3-[1-(cyanomethyl)-3-(trifluoromethyl)pyrazol-4-yl]imidazo[1,2-a]pyrazin-8-yl]amino]-2-ethyl-benzamide formate], the IC90 is 0.371 µM.

For `N[C@@H]1CCN(C(=O)N2CCN(C(=O)c3ccc(Nc4nccn5c(-c6c[nH]nc6C(F)(F)F)cnc45)cc3Cl)CC2)C1` [Example 326, [4-[(3R)-3-aminopyrrolidine-1-carbonyl]piperazin-1-yl]-[2-chloro-4-[[3-[3-(trifluoromethyl)-1H-pyrazol-4-yl]imidazo[1,2-a]pyrazin-8-yl]amino]phenyl]methanone formate], the IC90 amounted to 0.135 µM.

On to `Cc1cc(Nc2nccn3c(-c4cn(CC#N)nc4C(F)(F)F)cnc23)cc(F)c1C(=O)N1CCN(C(=O)[C@H](C)N)CC1` [Example 682, 2-(4-(8-((4-(4-(L-alanyl)piperazine-1-carbonyl)-3-fluoro-5-methylphenyl)amino)imidazo[1,2-a]pyrazin-3-yl)-3-(trifluoromethyl)-1H-pyrazol-1-yl) acetonitrile formate], for which the concentration for an effect of 90% (IC90) is 0.329 µM.

As to `CCc1cc(Nc2nccn3c(-c4cn(CC#N)nc4C(F)(F)F)cnc23)ccc1C(=O)NCCOCCCN` [Example 612, N-(2-(3-aminopropoxy)ethyl)-4-((3-(1-(cyanomethyl)-3-(trifluoromethyl)-1H-pyrazol-4-yl)imidazo[1,2-a]pyrazin-8-yl)amino)-2-ethylbenzamide formate], the IC90 came to 0.1 µM.

Consider `CCc1cc(Nc2nccn3c(-c4cn(CCCO)nc4C(F)(F)F)cnc23)ccc1C(=O)NCCOCCN` [Example 312, N-[2-(2-aminoethoxy)ethyl]-2-ethyl-4-[[3-[1-(3-hydroxypropyl)-3-(trifluoromethyl)pyrazol-4-yl]imidazo[1,2-a]pyrazin-8-yl]amino]benzamide formate], for which the IC90 is 0.839 µM.

As for `Cc1cc(Nc2nccn3c(-c4cn(CC#N)nc4C(F)(F)F)cnc23)ccc1C(=O)NCC(=O)NCCN(C)C` [Example 752, 4-[[3-[1-(cyanomethyl)-3-(trifluoromethyl)pyrazol-4-yl]imidazo[1,2-a]pyrazin-8-yl]amino]-N-[2-[2-(dimethylamino)ethylamino]-2-oxo-ethyl]-2-methyl-benzamide formate], the IC90 stood at 0.636 µM.

Consider `CCc1cc(Nc2nccn3c(-c4cn(CC#N)nc4C(F)(F)F)cnc23)ccc1C(=O)NCC(=O)NC1CC(N)C1` (stereo not drawn) [Example 675, N-[2-[(3-aminocyclobutyl)amino]-2-oxo-ethyl]-4-[[3-[1-(cyanomethyl)-3-(trifluoromethyl)pyrazol-4-yl]imidazo[1,2-a]pyrazin-8-yl]amino]-2-ethyl-benzamide formate], for which the IC90 amounted to 0.315 µM.

In the case of `CCc1cc(Nc2nccn3c(-c4cn(CC#N)nc4C(F)(F)F)cnc23)ccc1C(=O)N[C@H](C)C(=O)NC1CC(N)C1` (stereo partly drawn) [Example 790, N-[(1R)-2-[(3-aminocyclobutyl)amino]-1-methyl-2-oxo-ethyl]-4-[[3-[1-(cyanomethyl)-3-(trifluoromethyl)pyrazol-4-yl]imidazo[1,2-a]pyrazin-8-yl]amino]-2-ethyl-benzamide formate], the IC90 turned out to be 1.64 µM.

On to `CCc1cc(Nc2nccn3c(-c4c[nH]nc4C(F)(F)F)cnc23)ccc1C(=O)NCCCNC(=O)[C@H]1CC[C@@H](N)C1` [Example 535, N-(3-((1S,3R)-3-aminocyclopentane-1-carboxamido)propyl)-2-ethyl-4-((3-(3-(trifluoromethyl)-1H-pyrazol-4-yl)imidazo[1,2-a]pyrazin-8-yl)amino)benzamide formate], for which the 90% effect concentration (IC90) is 0.247 µM.

The assay is the same for the next values; noted with them: Acinetobacter baumannii, ATCC17961, 16 h, strain ATCC 17961, OD600 growth over 16 h, read-out: A. baumannii ATCC 17961 IC90.
As for `C=CCn1cc(-c2cnc3c(Nc4cc(C)c(C(=O)N5CCN(C(=O)[C@H]6CC[C@H](O)N6)CC5)c(F)c4)nccn23)c(C(F)(F)F)n1` [Example 629, (4-(4-((3-(1-allyl-3-(trifluoromethyl)-1H-pyrazol-4-yl)imidazo[1,2-a]pyrazin-8-yl)amino)-2-fluoro-6-methylbenzoyl)piperazin-1-yl)((2R,5S)-5-hydroxypyrrolidin-2-yl)methanone], the IC90 was determined as 0.198 µM.

Regarding `Cc1cc(Nc2nccn3c(-c4cn(CC(F)F)nc4C(F)(F)F)cnc23)cc(F)c1C(=O)N[C@H](C)CNC(=O)[C@H]1C[C@@H](N)C1` [Example 669, N-((R)-1-((1s,3S)-3-aminocyclobutane-1-carboxamido)propan-2-yl)-4-((3-(1-(2,2-difluoroethyl)-3-(trifluoromethyl)-1H-pyrazol-4-yl)imidazo[1,2-a]pyrazin-8-yl)amino)-2-fluoro-6-methylbenzamide], the concentration for an effect of 90% (IC90) came to 0.3 µM.

As to `CCc1cc(Nc2nccn3c(-c4c[nH]nc4C(F)(F)F)cnc23)ccc1C(=O)N[C@H](C)CN` [Example 145, N-[(2R)-1-aminopropan-2-yl]-2-ethyl-4-[[3-[3-(trifluoromethyl)-1H-pyrazol-4-yl]imidazo[1,2-a]pyrazin-8-yl]amino]benzamide trifluoroacetate], the 90% effect concentration (IC90) worked out at 1.9 µM.

Consider `CCc1cc(Nc2nccn3c(-c4cn(C(C)C)nc4C(F)(F)F)cnc23)ccc1C(=O)NCCOCCN` [Example 27, N-[2-(2-aminoethoxy)ethyl]-2-ethyl-4-[[3-[1-propan-2-yl-3-(trifluoromethyl)pyrazol-4-yl]imidazo[1,2-a]pyrazin-8-yl]amino]benzamide hydrochloride], for which the IC90 was determined as 0.306 µM.

For the compound `C#CCNC(=O)c1c(C)cc(Nc2nccn3c(-c4c[nH]nc4C(F)(F)F)cnc23)cc1F` [Example 43, 2-fluoro-6-methyl-N-prop-2-ynyl-4-[[3-[3-(trifluoromethyl)-1H-pyrazol-4-yl]imidazo[1,2-a]pyrazin-8-yl]amino]benzamide], the IC90 came to 1.95 µM.

On to `C[C@@H](N)C(=O)N1CCN(C(=O)c2ccc(Nc3nccn4c(-c5c[nH]nc5C(F)(F)F)cnc34)cc2Cl)CC1` [Example 207, (2R)-2-amino-1-[4-[2-chloro-4-[[3-[3-(trifluoromethyl)-1H-pyrazol-4-yl]imidazo[1,2-a]pyrazin-8-yl]amino]benzoyl]piperazin-1-yl]propan-1-one], for which the IC90 came to 0.205 µM.

For the compound `O=C(NC1CCCN(C(=O)[C@H]2C[C@H](O)CN2)C1)c1ccc(Nc2nccn3c(-c4c[nH]nc4C(F)(F)F)cnc23)cc1Cl` (mixture of isomers) [Example 387, 2-chloro-N-[1-[rac-(2R,4S)-4-hydroxypyrrolidine-2-carbonyl]piperidine-3-yl]-4-[[3-[3-(trifluoromethyl)-1H-pyrazol-4-yl]imidazo[1,2-a]pyrazin-8-yl]amino]benzamide], the IC90 came out at 4.84 µM.

As to `CCc1cc(Nc2nccn3c(-c4cn(CCNC)nc4C(F)(F)F)cnc23)ccc1C(=O)NC` [Example 298, 2-ethyl-N-methyl-4-[[3-[1-[2-(methylamino)ethyl]-3-(trifluoromethyl)pyrazol-4-yl]imidazo[1,2-a]pyrazin-8-yl]amino]benzamide], the IC90 amounted to 1.32 µM.

As to `Cc1cc(Nc2nccn3c(-c4cn(CC(F)F)nc4C(F)(F)F)cnc23)cc(F)c1C(=O)N1CCN(C(=O)CN)CC1` [Example 650, 2-amino-1-(4-(4-((3-(1-(2,2-difluoroethyl)-3-(trifluoromethyl)-1H-pyrazol-4-yl)imidazo[1,2-a]pyrazin-8-yl)amino)-2-fluoro-6-methylbenzoyl)piperazin-1-yl)ethan-1-one], the concentration for an effect of 90% (IC90) is 0.252 µM.

Regarding `CCc1cc(Nc2nccn3c(-c4cn(CC(F)F)nc4C(F)(F)F)cnc23)ccc1C(=O)NCCNC(=O)[C@@H]1CC[C@@H](N)C1` [Example 490, N-(2-((1R,3R)-3-aminocyclopentane-1-carboxamido)ethyl)-4-((3-(1-(2,2-difluoroethyl)-3-(trifluoromethyl)-1H-pyrazol-4-yl)imidazo[1,2-a]pyrazin-8-yl)amino)-2-ethylbenzamide formate], the IC90 stood at 0.196 µM.
